Reference: patent US11090304B2 (Amgen Inc., priority 2018, dated 2021)
Read-outs that look alike come from different tables or passages of the source.

Experiments:
[1] = target: GDP-bound KRAS protein (aa 1-169), containing both G12C and C118A amino acid substitutions (Homo sapiens, UniProt P01116, C118A/G12C); experiment: Coupled nucleotide exchange assay (SOS-mediated, AlphaScreen); type: biochemical; settings: for Coupled exchange IC50 (2 h): 2 h compound pre-incubation
[2] = test system: Phosphorylation of ERK1/2 in A549 cells; experiment: Phospho-ERK1/2 MSD assay in A549 cells; type: cell-based; settings: Homo sapiens
Method in brief: (§1)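 In the procedure, cells were plated a day ahead at 25,000 per well. Next, a dilution series of compound in growth medium was added for 2 or 4 h. EGF (10 ng/mL) stimulation for 10 min preceded washing and RIPA lysis. Lysate phospho-ERK1/2 was read by MSD, with IC50 derived by 4-parameter logistic analysis.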

[3] = test system: Phosphorylation of ERK1/2 in MIA PaCa-2 cells; experiment: Phospho-ERK1/2 MSD assay in MIA PaCa-2 cells; type: cell-based; settings: Homo sapiens
Method in brief: as §1

[4] = A549, 2 h, read-out: p-ERK IC50 (2 h; A549), 2 h compound treatment
[5] = A549, 4 h, read-out: p-ERK IC50 (4 h; A549), 4 h compound treatment
[6] = MIA PaCa-2, 2 h, read-out: p-ERK IC50 (2 h; MIA PaCa-2), 2 h compound treatment
[7] = MIA PaCa-2, 4 h, read-out: p-ERK IC50 (4 h; MIA PaCa-2), 4 h compound treatment

Chain of GDP-bound KRAS protein (aa 1-169), containing both G12C and C118A amino acid substitutions (P01116 1-169 isoform P01116-2 G12C/C118A): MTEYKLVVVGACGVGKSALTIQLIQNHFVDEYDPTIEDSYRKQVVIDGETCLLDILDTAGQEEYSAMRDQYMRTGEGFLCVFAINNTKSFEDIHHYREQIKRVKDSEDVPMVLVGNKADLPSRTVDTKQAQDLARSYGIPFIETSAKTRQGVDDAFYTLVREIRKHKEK

Coupled exchange IC50 (5 min) ([1]; 5 min compound pre-incubation)	Coupled exchange IC50 (2 h) [1]	IC50 [2, 4]	IC50 [2, 5]	IC50 [3, 6]	IC50 [3, 7]	SMILES	IC50 ([1]; read-out: Coupled exchange IC50 (5 min), 5 min compound pre-incubation)
0.808 µM	0.172 µM	≥ 10 µM	≥ 100 µM	0.407 µM	0.223 µM	C=CC(=O)N1CCN(c2nc(=O)n(-c3c(CC)cccc3CC)c3nc(-c4ccccc4)c(Cl)cc23)[C@@H](C)C1 [Example 54-62, 6-chloro-1-(2,6-diethylphenyl)-4-((2S)-2-methyl-4-(2-propenoyl)-1-piperazinyl)-7-phenyl-pyrido[2,3-d]pyrimidin-2(1H)-one]	–
0.845 µM	0.164 µM	–	≥ 33.3 µM	0.291 µM	0.136 µM	C=CC(=O)N1CCN(c2nc(=O)n(-c3c(CC)cccc3CC)c3nc(-c4ccccc4O)c(Cl)cc23)[C@@H](C)C1 [Example 54-63, 6-chloro-1-(2,6-diethylphenyl)-7-(2-hydroxyphenyl)-4-((2S)-2-methyl-4-(2-propenoyl)-1-piperazinyl) pyrido[2,3-d]pyrimidin-2(1H)-one]	–
0.253 µM	0.054 µM	≥ 10 µM	≥ 100 µM	0.14 µM	0.133 µM	C=CC(=O)N1CCN(c2nc(=O)n(-c3c(CC)cccc3CC)c3nc(-c4c(F)cccc4F)c(Cl)cc23)[C@@H](C)C1 [Example 54-65, 6-chloro-1-(2,6-diethylphenyl)-7-(2,6-difluorophenyl)-4-((2S)-2-methyl-4-(2-propenoyl)-1-piperazinyl) pyrido[2,3-d]pyrimidin-2(1H)-one]	–
0.109 | nda μM	–	≥ 10 µM	–	0.066 µM	–	C=CC(=O)N1CCN(c2nc(=O)n(-c3ccccc3C(C)C)c3nc(-c4cc(O)ccc4Br)c(Cl)cc23)[C@@H](C)C1 [Example 54-87, 7-(2-bromo-5-hydroxyphenyl)-6-chloro-4-((2S)-2-methyl-4-(2-propenoyl)-1-piperazinyl)-1-(2-(2-propanyl)phenyl)pyrido [2,3-d]pyrimidin-2(1H)-one]	–
0.139 | nda μM	–	≥ 10 µM	–	0.101 µM	–	C=CC(=O)N1CCN(c2nc(=O)n(-c3ccccc3C(C)C)c3nc(-c4cc(O)ccc4F)c(Cl)cc23)[C@@H](C)C1 [Example 54-88, 6-chloro-7-(2-fluoro-5-hydroxyphenyl)-4-((2S)-2-methyl-4-(2-propenoyl)-1-piperazinyl)-1-(2-(2-propanyl)phenyl)pyrido [2,3-d]pyrimidin-2(1H)-one]	–
1.95 | nda μM	–	≥ 10 µM	–	1.61 µM	–	C=CC(=O)N1CCN(c2nc(=O)n(-c3c(CC)cccc3CC)c3nc(-c4ccccc4F)c(Cl)cc23)[C@@H](C(=O)OC)C1 [Example 55-30, methyl (2R)-1-(6-chloro-1-(2,6-diethylphenyl)-7-(2-fluorophenyl)-2-oxo-1,2-dihydropyrido[2,3-d]pyrimidin-4-yl)-4-(2-propenoyl)-2-piperazinecarboxylate]	–
0.991 | nda μM	–	≥ 10 µM	–	0.45 µM	–	C=CC(=O)N1CCN(c2nc(=O)n(-c3ccccc3C(C)C)c3nc(-c4ccccc4F)c(F)cc23)[C@@H](C)C1 [Example 57-7, 6-fluoro-7-(2-fluorophenyl)-4-((2S)-2-methyl-4-(2-propenoyl)-1-piperazinyl)-1-(2-(2-propanyl)phenyl)pyrido[2,3-d]pyrimidin-2(1H)-one]	–
1.02 µM	0.101 µM	≥ 100 µM	65 µM	0.657 µM	0.552 µM	C=CC(=O)N1CCN(c2nc(=O)n(CC3(C(F)(F)F)CC3)c3nc(-c4c(O)cccc4F)c(Cl)cc23)CC1 [Example 60-3, 6-chloro-7-(2-fluoro-6-hydroxyphenyl)-4-(4-(2-propenoyl)-1-piperazinyl)-1-((1-(trifluoromethyl)cyclopropyl)methyl)pyrido[2,3-d]pyrimidin-2(1H)-one]	–
0.589 µM	0.102 µM	52.4 µM	60.5 µM	0.492 µM	0.447 µM	C=CC(=O)N1CCN(c2nc(=O)n(CC(C)(C)C)c3nc(-c4c(O)cccc4F)c(Cl)cc23)CC1 [Example 60-5, 6-chloro-1-(2,2-dimethylpropyl)-7-(2-fluoro-6-hydroxyphenyl)-4-(4-(2-propenoyl)-1-piperazinyl)pyrido[2,3-d]pyrimidin-2(1H)-one]	–
1.85 µM	0.161 µM	–	67.7 µM	–	1.04 µM	C=CC(=O)N1CCN(c2nc(=O)n(CC(C)(C)C)c3nc(-c4ccccc4F)c(Cl)cc23)CC1 [Example 60-6]	–
0.173 | nda μM	–	≥ 10 µM	–	0.072 µM	–	C=CC(=O)N1CCN(c2nc(=O)n(-c3nccnc3C3CC3)c3nc(-c4c(O)cccc4F)c(Cl)cc23)[C@@H](C)C1 [Example 60-8, 6-chloro-1-(3-cyclopropyl-2-pyrazinyl)-7-(2-fluoro-6-hydroxyphenyl)-4-((2S)-2-methyl-4-(2-propenoyl)-1-piperazinyl)pyrido[2,3-d]pyrimidin-2(1H)-one]	–
0.08 | nda μM	–	≥ 10 µM	–	0.063 µM	–	C=CC(=O)N1CCN(c2nc(=O)n(-c3c(C4CC4)ncnc3C3CC3)c3nc(-c4ccccc4F)c(Cl)cc23)[C@@H](C)C1 [Example 60-11, 6-chloro-1-(4,6-dicyclopropyl-5-pyrimidinyl)-7-(2-fluorophenyl)-4-((2S)-2-methyl-4-(2-propenoyl)-1-piperazinyl)pyrido[2,3-d]pyrimidin-2(1H)-one]	–
2.24 | nda μM	–	≥ 10 µM	–	0.946 µM	–	C=CC(=O)N1CCN(c2nc(=O)n(-c3ccccc3C)c3nc(-c4ccccc4F)c(Cl)cc23)[C@@H](C)C1 [Example 60-14, 6-chloro-7-(2-fluorophenyl)-1-(2-methylphenyl)-4-((2S)-2-methyl-4-(2-propenoyl)-1-piperazinyl)pyrido[2,3-d]pyrimidin-2(1H)-one]	–
0.686 | nda μM	–	≥ 10 µM	–	0.492 µM	–	C=CC(=O)N1CCN(c2nc(=O)n(-c3ccccc3C)c3nc(-c4c(O)cccc4F)c(Cl)cc23)[C@@H](C)C1 [Example 60-15, 6-chloro-7-(2-fluoro-6-hydroxyphenyl)-1-(2-methylphenyl)-4-((2S)-2-methyl-4-(2-propenoyl)-1-piperazinyl)pyrido[2,3-d]pyrimidin-2(1H)-one]	–
0.809 | nda μM	–	≥ 10 µM	–	0.387 µM	–	C=CC(=O)N1CCN(c2nc(=O)n(-c3ccccc3C(C)C)c3nc(-c4cc(OC)ccc4Br)c(Cl)cc23)[C@@H](C)C1 [Example 60-26, 7-(2-bromo-5-methoxyphenyl)-6-chloro-4-((2S)-2-methyl-4-(2-propenoyl)-1-piperazinyl)-1-(2-(2-propanyl)phenyl)pyrido[2,3-d]pyrimidin-2(1H)-one]	–
0.919 µM	0.115 µM	40.9 µM	86.6 µM	1 µM	0.71 µM	C=CC(=O)N1CCN(c2nc(=O)n(C(C(C)C)C(C)C)c3nc(-c4ccccc4F)c(Cl)cc23)CC1 [Example 60-31, 6-chloro-1-(2,4-dimethyl-3-pentanyl)-7-(2-fluorophenyl)-4-(4-(2-propenoyl)-1-piperazinyl)pyrido[2,3-d]pyrimidin-2(1H)-one]	–
0.392 µM	0.157 µM	87.4 µM	63.9 µM	0.221 µM	0.213 µM	C=CC(=O)N1CCN(c2nc(=O)n(C(CC)CC)c3nc(-c4c(C)ccc5[nH]ncc45)c(Cl)cc23)[C@@H](C)C1 [Example 60-32, 6-chloro-7-(5-methyl-1H-indazol-4-yl)-4-((2S)-2-methyl-4-(2-propenoyl)-1-piperazinyl)-1-(3-pentanyl)pyrido[2,3-d]pyrimidin-2(1H)-one]	–
1.24 µM	0.139 µM	≥ 100 µM	–	1.7 µM	–	C=CC(=O)N1CCN(c2nc(=O)n(CC(C)(C)C(F)(F)F)c3nc(-c4ccccc4F)c(Cl)cc23)[C@@H](C)C1 [Example 60-33, 6-chloro-7-(2-fluorophenyl)-4-((2S)-2-methyl-4-(2-propenoyl)-1-piperazinyl)-1-(3,3,3-trifluoro-2,2-dimethylpropyl)pyrido[2,3-d]pyrimidin-2(1H)-one]	–
0.478 | nda μM	–	≥ 10 µM	–	0.508 µM	–	C=CC(=O)N1CCN(c2nc(=O)n(CC(C)(C)C(F)(F)F)c3nc(-c4c(C)ccc5[nH]ncc45)c(Cl)cc23)[C@@H](C)C1 [Example 60-34, 6-chloro-7-(5-methyl-1H-indazol-4-yl)-4-((2S)-2-methyl-4-(2-propenoyl)-1-piperazinyl)-1-(3,3,3-trifluoro-2,2-dimethylpropyl)pyrido[2,3-d]pyrimidin-2(1H)-one]	–

SMILES	Coupled exchange IC50 (5 min) ([1]; 5 min compound pre-incubation)	Coupled exchange IC50 (2 h) [1]	IC50 [2, 4]	IC50 [2, 5]	IC50 [3, 6]	IC50 [3, 7]	IC50 ([1]; read-out: Coupled exchange IC50 (5 min), 5 min compound pre-incubation)
C=CC(=O)N1CCN(c2nc(=O)n(-c3c(C)cccc3C)c3nc(-c4c(O)cccc4F)c(Cl)cc23)[C@@H](C)C1 [Example 54-69, 6-chloro-1-(2,6-dimethylphenyl)-7-(2-fluoro-6-hydroxyphenyl)-4-((2S)-2-methyl-4-(2-propenoyl)-1-piperazinyl) pyrido[2,3-d]pyrimidin-2(1H)-one]	–	–	≥ 10 µM	–	0.199 µM	–	0.306 µM
